Reference: patent publication US9115137B2, “2,3,4,5-tetrahydro-1H-pyrido[4,3-B]indole compounds and methods of use thereof” (priority 2008, dated 2015)

Tests used:
[1] = molecular target: T1, human recombinant histamine H1 receptor (Homo sapiens, UniProt P35367); assay: Histamine H1 radioligand binding ([3H]Pyrilamine); conditions: compound at 1 μM; CHO cells; read-out: Histamine Binding (1 μM) H1, percent inhibition of specific binding
T1 construct: expressed in transfected cells; host or cells: CHO cells
T1 sequence (P35367 whole entry): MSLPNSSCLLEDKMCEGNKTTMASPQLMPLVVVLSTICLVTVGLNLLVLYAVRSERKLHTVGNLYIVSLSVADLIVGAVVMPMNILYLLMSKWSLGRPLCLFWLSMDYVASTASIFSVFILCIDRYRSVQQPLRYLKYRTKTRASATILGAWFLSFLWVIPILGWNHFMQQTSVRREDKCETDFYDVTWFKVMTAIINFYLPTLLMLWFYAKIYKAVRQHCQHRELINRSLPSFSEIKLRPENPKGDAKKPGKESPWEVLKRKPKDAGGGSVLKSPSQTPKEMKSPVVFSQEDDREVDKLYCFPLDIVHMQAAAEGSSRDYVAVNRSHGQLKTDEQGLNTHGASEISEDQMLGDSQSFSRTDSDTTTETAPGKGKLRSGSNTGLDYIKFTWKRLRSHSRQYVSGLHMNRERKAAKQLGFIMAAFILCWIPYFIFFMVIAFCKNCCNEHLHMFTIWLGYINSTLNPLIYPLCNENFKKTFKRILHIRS
Method: To evaluate in radioligand binding assays the activity of compounds of the invention, human recombinant histamine H1 receptor expressed in Chinese hamster ovary (CHO) cells (De Backer, M. D. et al., Biochem. Biophys. Res. Comm. 197(3):1601, 1993) in a modified Tris-HCl buffer (50 mM Tris-HCl, pH 7.4, 2 mM MgCl2, 100 mM NaCl, 250 mM Sucrose) was used. Compounds of the invention were incubated with 1.2 nM [^3H]Pyrilamine for 180 minutes at 25° C. Non-specific binding was estimated in the presence of 1 μM pyrilamine. Receptor proteins were filtered and washed, the filters were then counted to determine [^3H]Pyrilamine specifically bound. Compounds were screened at 1 μM, using 1% DMSO as vehicle. Biochemical assay results are presented as the percent inhibition of specific binding in Table 5.

[2] = molecular target: T2, human recombinant histamine H2 receptor (Homo sapiens, UniProt P25021); assay: Histamine H2 radioligand binding ([125I]aminopotentidine); conditions: compound at 1 μM; CHO K1 cells; read-out: Histamine Binding (1 μM) H2, percent inhibition of specific binding
T2 construct: expressed in transfected cells; host or cells: CHO-K1 cells
T2 sequence (P25021 whole entry): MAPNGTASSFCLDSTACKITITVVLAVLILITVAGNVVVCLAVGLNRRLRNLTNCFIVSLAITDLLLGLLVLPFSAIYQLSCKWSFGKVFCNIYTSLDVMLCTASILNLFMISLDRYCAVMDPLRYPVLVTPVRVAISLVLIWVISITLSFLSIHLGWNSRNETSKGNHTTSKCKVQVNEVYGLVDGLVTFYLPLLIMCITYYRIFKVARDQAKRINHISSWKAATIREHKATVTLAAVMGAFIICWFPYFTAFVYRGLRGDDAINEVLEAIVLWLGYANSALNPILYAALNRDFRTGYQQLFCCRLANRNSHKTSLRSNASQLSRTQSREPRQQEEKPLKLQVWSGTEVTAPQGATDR
Method: To evaluate in radioligand binding assays the activity of compounds of the invention, human recombinant histamine H2 receptor expressed in Chinese hamster ovary (CHO) K1 cells (Ruat, M., Proc. Natl. Acad. Sci. USA. 87(5):1658, 1990) in a 50 mM Phosphate buffer, pH 7.4 was used. Compounds of the invention were incubated with 0.1 nM [^125I]aminopotentidine for 120 minutes at 25° C. Non-specific binding was estimated in the presence of 3 μM Tiotidine. Receptor proteins were filtered and washed, the filters were then counted to determine [^125I]Aminopotentidine specifically bound. Compounds were screened at 1 μM, using 1% DMSO as vehicle. Biochemical assay results are presented as the percent inhibition of specific binding in Table 5.

[3] = molecular target: T3, human recombinant adrenergic α1D receptor (Homo sapiens, UniProt P25100); assay: Adrenergic α1D radioligand binding ([3H]Prozosin); conditions: compound at 1 μM; HEK-293 cells; read-out: Adrenergic (1 μM) α1D, percent inhibition of specific binding
T3 construct: expressed in transfected cells; host or cells: HEK-293 cells
T3 sequence (P25100 1-572): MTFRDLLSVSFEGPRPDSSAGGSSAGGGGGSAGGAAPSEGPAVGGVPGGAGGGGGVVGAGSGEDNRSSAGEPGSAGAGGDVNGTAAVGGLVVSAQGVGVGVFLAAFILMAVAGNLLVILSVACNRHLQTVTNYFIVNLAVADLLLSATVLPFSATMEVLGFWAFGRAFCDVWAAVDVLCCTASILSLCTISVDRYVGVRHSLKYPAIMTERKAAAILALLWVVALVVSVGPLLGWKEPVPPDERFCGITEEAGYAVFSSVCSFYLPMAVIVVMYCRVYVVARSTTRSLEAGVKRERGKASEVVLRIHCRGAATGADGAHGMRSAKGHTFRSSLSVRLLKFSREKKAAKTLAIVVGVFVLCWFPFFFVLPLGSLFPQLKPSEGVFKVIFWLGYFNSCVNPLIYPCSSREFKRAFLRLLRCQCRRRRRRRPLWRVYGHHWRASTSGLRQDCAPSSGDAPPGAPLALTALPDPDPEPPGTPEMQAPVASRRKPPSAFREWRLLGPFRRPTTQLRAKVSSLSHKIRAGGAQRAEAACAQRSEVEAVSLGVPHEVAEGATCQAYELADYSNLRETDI
Method: To evaluate in radioligand binding assays the activity of compounds of the invention, human recombinant adrenergic α1D receptor expressed in human embryonic kidney (HEK-293) cells (Kenny, B. A. et al. Br. J. Pharmacol. 115(6):981, 1995) in a 50 mM Tris-HCl buffer, pH 7.4, was used. Compounds of invention were incubated with 0.6 nM [^3H]Prozosin for 60 minutes at 25° C. Non-specific binding was estimated in the presence of 10 μM phentolamine. Receptor proteins were filtered and washed, the filters were then counted to determine [^3H]Prozosin specifically bound. Compounds were screened at 1 μM or lower, using 1% DMSO as vehicle. Biochemical assay results are presented as the percent inhibition of specific binding in Table 6.

[4] = molecular target: T4, human recombinant serotonin (5-Hydroxytryptamine) 5-HT2C receptor (Homo sapiens, UniProt P28335); assay: Serotonin 5-HT2C radioligand binding ([3H]Mesulergine); conditions: compound at 1 μM; CHO-K1 cells; read-out: Serotonin (1 μM) 5-HT2C, percent inhibition of specific binding
T4 construct: expressed in transfected cells; host or cells: CHO-K1 cells
T4 sequence (P28335 33-458): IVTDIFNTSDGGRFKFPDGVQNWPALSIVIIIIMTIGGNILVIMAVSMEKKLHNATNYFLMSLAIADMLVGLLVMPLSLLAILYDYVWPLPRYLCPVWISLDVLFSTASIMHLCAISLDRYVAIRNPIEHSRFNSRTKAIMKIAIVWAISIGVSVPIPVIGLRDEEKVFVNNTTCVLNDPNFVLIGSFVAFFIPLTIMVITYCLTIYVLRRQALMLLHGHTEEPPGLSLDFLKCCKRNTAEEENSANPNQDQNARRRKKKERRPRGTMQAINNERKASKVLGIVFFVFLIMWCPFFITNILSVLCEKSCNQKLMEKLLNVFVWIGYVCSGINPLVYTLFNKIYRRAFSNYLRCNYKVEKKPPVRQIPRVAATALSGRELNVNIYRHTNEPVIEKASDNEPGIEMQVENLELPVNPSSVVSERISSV
Method: To evaluate in radioligand binding assays the activity of compounds of the invention, human recombinant serotonin (5-Hydroxytryptamine) 5-HT2C receptor expressed in Chinese hamster ovary (CHO-K1) cells (Wolf, W. A. and Schutz, J. S., J. Neurochem. 69:1449, 1997) in a modified Tris-HCl buffer (50 mM Tris-HCl, pH 7.4, 0.1% Ascorbic Acid, 10 μM Pargyline) was used. Compounds of the invention were incubated with 1 nM [^3H]Mesulergine for 60 minutes at 25° C. Non-specific binding was estimated in the presence of 1 μM Mianserin. Receptor proteins were filtered and washed, the filters were then counted to determine [^3H]Mesulergine specifically bound. Compounds were screened at 1 μM or lower, using 1% DMSO as vehicle. Biochemical assay results are presented as the percent inhibition of specific binding in Table 7.

Row | SMILES | inhibition at 1 µM [1] [%] | inhibition at 1 µM [2] [%] | inhibition at 1 µM [3] [%] | inhibition at 1 µM [4] [%]
1 | CN1CCc2c(c3cc(Cl)ccc3n2CCC(=O)OCc2ccccc2)C1 [Compound 19, benzyl 3-(8-chloro-1,2,3,4-tetrahydro-2-methylpyrido[4,3-b]indol-5-yl)propanoate] | 101 | 81 | 83 | 96
2 | CN1CCc2c(c3cc(Cl)ccc3n2CCC(=O)OCC2CCCCC2)C1 [Compound 20, cyclohexylmethyl 3-(8-chloro-1,2,3,4-tetrahydro-2-methylpyrido[4,3-b]indol-5-yl)propanoate] | 95 | 93 | 90 | 88
3 | CN1CCc2c(c3cc(Cl)ccc3n2CCC(=O)OC2CCCC2)C1 [Compound 21, cyclopentyl 3-(8-chloro-1,2,3,4-tetrahydro-2-methylpyrido[4,3-b]indol-5-yl)propanoate] | 98 | 82 | 88 | 100
4 | CCNC(=O)Cn1c2c(c3cc(C)ccc31)CN(C)CC2 [Compound 22, N-ethyl-2-(1,2,3,4-tetrahydro-2,8-dimethylpyrido[4,3-b]indol-5-yl)acetamide] | 85 | 11 | 23 | 81
5 | Cc1ccc2c(c1)c1c(n2CC(=O)NC(C)C)CCN(C)C1 [Compound 23, 2-(1,2,3,4-tetrahydro-2,8-dimethylpyrido[4,3-b]indol-5-yl)-N-isopropylacetamide] | 65 | 1 | 15 | 37
6 | Cc1ccc2c(c1)c1c(n2CC(=O)NC(C)(C)C)CCN(C)C1 [Compound 24, N-tert-butyl-2-(1,2,3,4-tetrahydro-2,8-dimethylpyrido[4,3-b]indol-5-yl)acetamide] | 44 | 5 | -4 | 21
7 | Cc1ccc2c(c1)c1c(n2CC(=O)NCc2ccccc2)CCN(C)C1 [Compound 25, N-benzyl-2-(1,2,3,4-tetrahydro-2,8-dimethylpyrido[4,3-b]indol-5-yl)acetamide] | 72 | 9 | 22 | 61
8 | Cc1ccc2c(c1)c1c(n2CC(=O)NCC2CCCCC2)CCN(C)C1 [Compound 26, N-(cyclohexylmethyl)-2-(1,2,3,4-tetrahydro-2,8-dimethylpyrido[4,3-b]indol-5-yl)acetamide] | 66 | 22 | 32 | 54
9 | CN1CCc2c(c3cc(Cl)ccc3n2CC(=O)NC2CCCC2)C1 [Compound 27, 2-(8-chloro-1,2,3,4-tetrahydro-2-methylpyrido[4,3-b]indol-5-yl)-N-cyclopentylacetamide] | 63 | 5 | 18 | 28
10 | Cc1ccc2c(c1)c1c(n2CCC(=O)NC(C)(C)C)CCN(C)C1 [Compound 28] | 21 | 18 | 58 | 35
11 | Cc1ccc2c(c1)c1c(n2CCC(=O)Nc2ccccc2)CCN(C)C1 [Compound 29] | 84 | 34 | 74 | 73
12 | Cc1ccc2c(c1)c1c(n2CCC(=O)NCC2CCCCC2)CCN(C)C1 [Compound 30, N-(cyclohexylmethyl)-3-(1,2,3,4-tetrahydro-2,8-dimethylpyrido[4,3-b]indol-5-yl)propanamide] | 18 | 41 | 73 | 93
13 | CN1CCc2c(c3cc(Cl)ccc3n2CCC(=O)NC2CCCC2)C1 [Compound 31, 3-(8-chloro-1,2,3,4-tetrahydro-2-methylpyrido[4,3-b]indol-5-yl)-N-cyclopentylpropanamide] | 45 | 20 | 61 | 76
14 | CN1CCc2c(c3cc(Cl)ccc3n2CC(N)=O)C1 [Compound 45, 2-(8-chloro-1,2,3,4-tetrahydro-2-methylpyrido[4,3-b]indol-5-yl)acetamide] | 82 | 3 | 12 | 52
15 | Cc1ccc2c(c1)c1c(n2CCC(N)=O)CCN(C)C1 [Compound 46, 3-(1,2,3,4-tetrahydro-2,8-dimethylpyrido[4,3-b]indol-5-yl)propanamide] | 52 | -5 | 7 | 65
16 | Cc1ccc2c(c1)c1c(n2CCC(=O)Nc2ccc(F)cc2)CCN(C)C1 [Compound 47, N-(4-fluorophenyl)-3-(1,2,3,4-tetrahydro-2,8-dimethylpyrido[4,3-b]indol-5-yl)propanamide] | 90 | 53 | 80 | 90
17 | CN1CCc2c(c3cc(Cl)ccc3n2CC(=O)N(C)C)C1 [Compound 48, 2-(8-chloro-1,2,3,4-tetrahydro-2-methylpyrido[4,3-b]indol-5-yl)-N,N-dimethylacetamide] | 73 | 4 | 10 | 37
18 | CN1CCc2c(c3cc(Cl)ccc3n2CCC(=O)N(C)C)C1 [Compound 49, 3-(8-chloro-1,2,3,4-tetrahydro-2-methylpyrido[4,3-b]indol-5-yl)-N,N-dimethylpropanamide] | 82 | 5 | 18 | 47
